Test results from PubChem BioAssay AID179 (DTP/NCI, 2004).
Calls of active or inactive are those of the source.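 How the source made its calls: active means compounds giving half or more protection of infected cells from virus-caused growth loss, again on retest; inactive means the rest.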

Test system: CEM cells HIV-1 protection, formazan growth assay
Experiment: NCI AIDS Antiviral Assay
Conditions: for IC50: measured here: growth of uninfected CEM cells
Protocol: The ability of compounds to protect human CEM cells from HIV-1 infection is measured as a screen for new compounds capable of inhibiting the HIV virus. Five concentrations of drug were tested on uninfected and infected cells and cell growth was measured using a soluble formazan assay. […] Compounds that provided at least 50% protection were retested. Compounds that provided at least 50% protection on retest were listed as moderately active. Compounds that reproducibly provided 100% protection were listed as confirmed active. […] Note that the inability to provide protection could be due to toxicity.

Structure (SMILES)	EC50 [µM]	IC50 [µM]	outcome
CN1CCCN2CCN(C)CCCN(CC1)CC2	> 977	> 977	
Cc1ccc(C(=O)N2c3ccccc3N(C)n3cccc3C2CC(=O)O)cc1 (centres undefined)	> 661	148	
C=C=[CH][Sn]([c]1ccccc1)([c]1ccccc1)[c]1ccccc1	> 35.5	0.676	
CC(=O)NCCc1c[nH]c2ccc(Cl)cc12	> 200	195	
S=C(c1c[nH]c2ccccc12)N1CCN(Cc2ccccc2)CC1	> 200	37.2	
O=S1(=O)c2ccccc2N(c2ccccc2)C2=NCCN21	> 120	> 120	
O=C(Nc1cc(C(F)(F)F)ccc1Cl)C(=O)C(C(=O)c1ccc2ccccc2c1)C1OC(=O)c2ccccc21 (centres undefined)	> 33.9	18.6	
C/C=C/C(=O)Oc1cccc2cccnc12	> 251	1.51	
COc1ccc(/C=C2\NC(=S)N(CN3CCOCC3)C2=O)cc1	> 200	46.8	
COC(=O)C(Cc1ccccc1)NC(=O)c1ccc(CNC(=S)NCc2cccc(CNC(=S)NCc3ccccc3)c2)cc1 (centres undefined)	> 200	148	
O=c1oc2ccccc2c(O)c1C(c1ccc(C(c2c(O)c3ccccc3oc2=O)c2c(O)c3ccccc3oc2=O)cc1)c1c(O)c2ccccc2oc1=O	> 200	50.1	
Clc1ccc(Nc2nnc(CNc3ccc(-c4nnc(Nc5ccc(Cl)cc5)o4)cc3)o2)cc1	> 200	1.23	
Cc1ccc(S(=O)(=O)c2ccc(C)cc2[N+](=O)[O-])c([N+](=O)[O-])c1	> 40.7	> 40.7	
CCn1cc(C(=O)O)c(=O)c2cc3c(cc21)OCO3	> 38	> 38	
CCOP(=O)(CN=C(c1ccccc1)c1ccccc1)OCC	> 200	> 200	
CC12CCC(C(Nc3ccccn3)C1=O)C2(C)C (centres undefined)			inactive
O=S1(c2ccccc2)=NC(=S)Nc2ccccc21 (centres undefined)	17.4	> 200	
c1cncc(-c2nc3sc(-c4cccnc4)nc3s2)c1			inactive
O=C(O)C[C@H]1CCCCC12CCOC2=O (some centres undefined)			inactive
CCOC(=O)C(NC(=O)CC)(Nc1ccccc1OC)C(F)(F)F (centres undefined)	> 200	> 200	
O=C1NC(=O)c2ccc([N+](=O)[O-])c3cccc1c23	> 0.871	0.1	
COc1c(Br)cc(/C=C(\C#N)c2cccnc2)cc1Br	> 200	25.1	

Structure (SMILES)	EC50 [µM]	IC50 [µM]	outcome
CCOC(=O)c1c(Br)c(-c2ccc([N+](=O)[O-])cc2)c(Br)n1C	> 200	39.8	
Cc1ccc(C2(O)c3ccccc3C(=O)N(C)C2(O)c2ccc(C)cc2)cc1 (centres undefined)	> 200	12.9	
Cn1cc(NC(=O)c2cc([N+](=O)[O-])cn2C)cc1C(=O)Nc1cc(S(=O)(=O)O)c2cc(S(=O)(=O)O)cc(S(=O)(=O)O)c2c1	275	347	
COC(=O)c1ccc(CCC2=CC(=O)C(Br)=CC2=O)cc1	> 200	9.33	
Cc1ccc(S(=O)(=O)N2CCC3(C(/C=C/c4ccccc4)=Nc4ccccc43)C2c2ccccc2)cc1 (centres undefined)			inactive
O=C1c2ccccc2-c2nccc3c2c1nc1ccccc13	> 200	8.32	
NS(=O)(=O)c1nnc(NC(=O)c2ccccc2)s1	> 200	> 200	
CCCc1cc(=O)oc2c3c(cc(OC(C)C)c12)O[C@H](C)[C@@H](C)C3=O	77.6	120	
COc1ccc([N+](=O)[O-])c(/C(C#N)=C/c2ccccc2)c1	> 200	12.3	
C#CCN(N=O)C(=O)NCCCCC(NC(C)=O)C(=O)NCc1ccccc1 (centres undefined)	> 646	56.2	
O=C1CSC(c2cccc(Cl)c2)N1N1C(=O)CSC1c1cccc(Cl)c1 (centres undefined)	> 200	66.1	
C=CCC12CC(O)C(O)CC1(O)OC(c1cc(OC)c(OC)c(OC)c1)C2C (centres undefined)	> 200	> 200	
Oc1cccc(/C=C/c2cnnc3ccccc23)c1	> 200	37.2	
O=C1CC(c2ccoc2)NC(=O)N1CCCl (centres undefined)	> 200	> 200	
CC1(c2ccc3ccccc3c2)OC(=O)c2ccccc21 (centres undefined)			inactive
COC(=O)C1CCCN1C(=O)OC(C)(C)C (centres undefined)	57.5	> 200	
O=C(CC(=O)N1N=C(n2ccc3ccccc32)CC1c1ccccc1)Nc1ccc(Cl)cc1 (centres undefined)	> 1.2	> 1.2	
COc1cc(/C=C/c2ccnc3ccccc23)cc(OC)c1OC	> 200	1.48	
COc1ccc(/C(=N\N=C(N)N)C(c2ccc(OC)cc2)C2OC(=O)c3ccccc32)cc1 (centres undefined)	> 3.24	> 3.24	
CC(C)N1C(=O)C(C#N)=C(c2ccccc2)SC1c1ccccc1 (centres undefined)	> 30.2	> 30.2	
C/C(CC(=O)Nc1cccc(Cl)c1C)=N\NC(=O)c1ccncc1	> 275	129	
O=C(O)CSc1cc2c3ccccc3sc2c2ccccc12	> 6.17	> 6.17	

Structure (SMILES)	EC50 [µM]	IC50 [µM]	outcome
CN(C(=O)C12C3C4C1C1C2C3C41C(O)C(C)(C)C)C(C)(C)C (centres undefined)	> 117	> 117	
O[C@]12C=C[C@H](CCCC1)O2	> 200	50.1	
COC(=O)C1C=CCON2CCc3c(n(S(=O)(=O)c4ccccc4)c4ccccc34)C12 (centres undefined)	> 22.9	> 22.9	
CCN1CCOC(c2ccccc2)C1c1ccccc1 (centres undefined)	> 200	129	
CCOC(=O)[C@@H]1ON2O[C@H](OC3CCCC3(c3ccccc3)c3ccccc3)C[C@H]3OC(=O)[C@@H]1C32 (some centres undefined)	> 200	32.4	
C[n+]1ccccc1/C=N/O	> 200	> 200	
N#CCN1C(=O)c2cc([N+](=O)[O-])cc3cc([N+](=O)[O-])cc(c23)C1=O			inactive
CC(C)NC(=O)OCc1nnn2c1CCC2			inactive
OCC(O)C(O)C(O)c1nc2ccccc2s1 (centres undefined)	> 977	120	
Cc1cccc(C)c1N1C(=O)C(=O)C(c2nc3ccccc3s2)/C(=N/NC(=O)c2ccccc2O)C1=O (centres undefined)	> 251	6.61	
CC1(C(N)=O)OC12CCCCC2 (centres undefined)	> 200	> 200	
O=C(CBr)Nc1ccccc1-c1ccccc1NC(=O)CBr			inactive
Cc1cc(C2CC(O)C(CO)O2)c(F)cc1F (centres undefined)	> 200	> 200	
O=C(Cn1c2ccc(Br)cc2c2nc3ccccc3nc21)NNC(=O)NC1CCCCC1	> 200	182	
CCCN(CCC)c1cc2c(cc1F)c(=O)c(C(=O)O)cn2-c1ccc(N2CCN(C)CC2)cn1	> 200	14.8	
CC1=NC2c3c(-c4ccc(Cl)cc4)cn(-c4ccc(C)cc4)c3N=CN2N1 (centres undefined)	> 100	> 100	
O=S1(=O)c2ccccc2N(c2ccccc2)c2nnnn21	> 79.4	33.1	
Cc1ccc(S(=O)(=O)n2c3ccc(Br)cc3c3nc4ccccc4nc32)cc1	> 100	> 100	
CC1=C(C2CC(C)CC(OCOCc3ccccc3)O2)C(C)(C)CCC1 (centres undefined)	> 20	> 20	
C[N+]1(CC(=O)c2ccc(O)c(O)c2)CCOCC1	> 200	> 200	
O=C1c2cccc3cccc(c23)C(=O)N1CCCCCCCCN1C(=O)c2cccc3cccc(c23)C1=O	> 200	14.8	
COc1ccc(/C=C2\CNC/C(=C\c3ccc(OC)cc3)C2=O)cc1	> 7.41	> 7.41	

Structure (SMILES)	EC50 [µM]	IC50 [µM]	outcome
CC(C)(C)OC(=O)NC(Cc1ccc([N+](=O)[O-])cc1)C(=O)NC(CCCCNC(=O)OCc1ccccc1)C(=O)ON1C(=O)CCC1=O (centres undefined)	> 200	56.2	
CS(=O)(=O)c1nc(N)nc2nc[nH]c12	> 200	> 200	
CCCCCCCCCCNCCSSCCNC(C)=O	> 200	5.37	
CC(C)(C)[C@H]1CO[C@]2(C)[C@@H]3C[C@@H]3C(=O)N12			inactive
CCOC(=O)CC(=O)C(=O)NNC1=NCCN1	> 200	> 200	
O=S1(=O)NNC(=NCc2ccc(Cl)c(Cl)c2)c2ccccc21			inactive
COc1ccc(/C=C/C(CC(NO)c2ccc(OC)cc2)=N\O)cc1 (centres undefined)	> 200	> 100	
COC1(OC)CC(CO)(CNc2nc(N)nc(Cl)c2/C=N\O)C1	> 200	2.69	
Cc1cccc(N(C(=O)Nc2ccc(Cl)c(Cl)c2)C2=NCC(C)S2)c1 (centres undefined)	> 200	> 200	
COC(=O)/C=c1\sc2n(c1=O)CCCCN=2	> 417	240	
COc1ncnc2c1ncn2C1OC(CO)(C(F)(F)F)C(O)C1O (centres undefined)	> 200	> 200	
CCN(CC)CCC(=O)c1ccc(Cl)c(Cl)c1	> 5010	> 5010	
CN1C(=S)C(c2ccccc2)Sc2ccccc21 (centres undefined)	> 200	42.7	
C[C@H](CCC1=NCCN1)[C@H]1CC[C@H]2[C@@H]3CC[C@@H]4C[C@H](O)CC[C@]4(C)[C@H]3C[C@H](O)[C@]12C	> 200	11.5	
CN1C(=O)NC(C=O)(CCc2ccccc2)C1=O (centres undefined)			inactive
CSCC1CC(c2ccc(Cl)cc2)=NO1 (centres undefined)	> 107	> 107	
CCOC(=O)CC(=O)CSc1c(-c2ccccc2)c(=O)n(-c2ccccc2)c(=S)n1-c1ccccc1	> 200	72.4	
CC[C@@H]1C[C@H]2CC3c4c(c5cc(OC)ccc5n4C)CCN(C2)C31			inactive
O=C1Nc2ccccc2/C1=C/c1cc(Cl)cc(Cl)c1O (tested in a mixture with another compound)	> 200	44.7	
O=C1CCSc2nc(-c3ccc4c(c3)OCO4)nn21	> 200	> 200	
Cc1ccc(NC(=O)c2cnccn2)c(=O)o1	> 200	> 200	
CCCCCCCCCc1c(O)c(O)c(CCCCCCCCC)c(CCCCCCCCC)c1CCCCCCCCC	> 100	16.6	
